Laboratory results from PubChem BioAssay (NCI).
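Cells were grown in 96-well plates and exposed to each compound for 48 hours at five concentrations; endpoints were interpolated linearly between bracketing concentrations, or set to the highest concentration if not reached. GI50 is the concentration that inhibits growth by half. TGI denotes the concentration required for complete inhibition of growth.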

How the values were obtained:
Test in all cases: NCI-60 cell line screen, 48 h
[1] = system: TK-10 renal
[2] = system: OVCAR-5 ovarian
[3] = system: ACHN renal
[4] = system: MDA-MB-435
[5] = system: UO-31 renal
[6] = system: COLO 205 colon
[7] = system: CAKI-1 renal
[8] = system: OVCAR-4 ovarian
[9] = system: NCI/ADR-RES ovarian
[10] = system: K-562 leukemia
[11] = system: SN12C renal
[12] = system: NCI-H522 lung
[13] = system: SR leukemia
[14] = system: SK-OV-3 ovarian
[15] = system: RXF 393 renal
[16] = system: HL-60(TB) leukemia
[17] = system: SF-268 CNS
[18] = system: UACC-62 melanoma
[19] = system: HOP-62 NSCLC
[20] = system: 786-0 renal
[21] = system: DU-145 prostate
[22] = system: T-47D breast
[23] = system: M14 melanoma
[24] = system: MDA-MB-231 breast
[25] = system: MCF7 breast
[26] = system: SW-620 colon
[27] = system: NCI-H23 lung
[28] = system: IGROV1 ovarian
[29] = system: UACC-257 melanoma
[30] = system: MALME-3M melanoma
[31] = system: HS 578T breast
[32] = system: SF-539 CNS
[33] = system: HCT-116 colon
[34] = system: NCI-H460 lung
[35] = system: KM12 colon
[36] = system: SF-295 CNS
[37] = system: SNB-75 CNS
[38] = system: A549 NSCLC
[39] = system: SK-MEL-2 melanoma
[40] = system: HCT-15 colon
[41] = system: OVCAR-3 ovarian
[42] = system: U251 CNS
[43] = system: HOP-92 NSCLC
[44] = system: HT29 colon
[45] = system: BT-549 breast
[46] = system: NCI-H226 lung
[47] = system: OVCAR-8 ovarian
[48] = system: SK-MEL-28 melanoma
[49] = system: PC-3 prostate
[50] = system: SNB-19 CNS
[51] = system: LOX IMVI melanoma
[52] = system: EKVX NSCLC
[53] = system: SK-MEL-5 melanoma
[54] = system: MOLT-4 leukemia
[55] = system: CCRF-CEM leukemia
[56] = system: HCC-2998 colon
[57] = system: A498 renal
[58] = system: RPMI-8226 leukemia

## CC1=NN(C(=O)c2ccc(Cl)cc2)C(=O)C1N=Nc1ccc(S(=O)(=O)Nc2ncccn2)cc1 (configuration not stated)
[1]
  TGI: > 100 µM
[2]
  TGI: > 100 µM
[3]
  TGI: > 100 µM
[4]
  TGI: > 100 µM
[5]
  TGI: > 100 µM
[6]
  TGI: > 100 µM
[7]
  TGI: > 100 µM
[8]
  TGI: > 100 µM
[9]
  TGI: > 100 µM
[10]
  TGI: > 100 µM
[11]
  TGI: > 100 µM
[12]
  TGI: > 100 µM
[13]
  TGI: > 100 µM
[14]
  TGI: > 100 µM
[15]
  TGI: > 100 µM
[16]
  TGI: > 100 µM
[17]
  TGI: > 100 µM
[18]
  TGI: > 100 µM
[19]
  TGI: > 100 µM
[20]
  TGI: > 100 µM
[21]
  TGI: > 100 µM
[22]
  TGI: > 100 µM
[23]
  TGI: > 100 µM
[24]
  TGI: > 100 µM
[25]
  TGI: > 100 µM
[26]
  TGI: > 100 µM
[27]
  TGI: > 100 µM
[28]
  TGI: > 100 µM
[29]
  TGI: > 100 µM
[30]
  TGI: > 100 µM
[31]
  TGI: > 100 µM
[32]
  TGI: > 100 µM
[33]
  TGI: > 100 µM
[34]
  TGI: > 100 µM
[35]
  TGI: > 100 µM
[36]
  TGI: > 100 µM
[37]
  TGI: > 100 µM
[38]
  TGI: > 100 µM
[39]
  TGI: > 100 µM
[40]
  TGI: > 100 µM
[41]
  TGI: > 100 µM
[42]
  TGI: > 100 µM
[43]
  TGI: 2.07 µM
[44]
  TGI: > 100 µM
[45]
  TGI: > 100 µM
[46]
  TGI: > 100 µM
[47]
  TGI: > 100 µM
[48]
  TGI: > 100 µM
[49]
  TGI: 5.11 µM
[50]
  TGI: > 100 µM
[51]
  TGI: > 100 µM
[52]
  TGI: > 100 µM
[53]
  TGI: > 100 µM
[54]
  TGI: > 100 µM

## Cc1cc(Nc2ccc3c(c2)OCO3)c2cc3c(cc2n1)OCO3
[1]
  GI50: 5.62 µM
  TGI: 32.5 µM
[2]
  GI50: 4.24 µM
  TGI: 41.1 µM
[3]
  GI50: 6.23 µM
  TGI: 26.6 µM
[4]
  GI50: 0.265 µM
  TGI: 1.37 µM
[5]
  GI50: 1.63 µM
  TGI: 9.1 µM
[6]
  GI50: 1.31 µM
  TGI: 4.03 µM
[7]
  GI50: 2.55 µM
  TGI: 30.7 µM
[8]
  GI50: 5.2 µM
  TGI: 44.4 µM
[9]
  GI50: 2.15 µM
  TGI: 18.5 µM
[10]
  GI50: 1.24 µM
  TGI: > 100 µM
[55]
  GI50: 1.92 µM
  TGI: 10.2 µM
[11]
  GI50: 4.14 µM
  TGI: 31.3 µM
[12]
  GI50: 2.35 µM
  TGI: 10 µM
[13]
  GI50: 0.532 µM
  TGI: > 84.4 µM
[14]
  GI50: 3.22 µM
  TGI: 30.1 µM
[16]
  GI50: 0.745 µM
  TGI: > 19.9 µM
[17]
  GI50: 3.69 µM
  TGI: 19.3 µM
[18]
  GI50: 2.08 µM
  TGI: 16.5 µM
[19]
  GI50: 3.84 µM
  TGI: 20.3 µM
[20]
  GI50: 4.2 µM
  TGI: 17.8 µM
[21]
  GI50: 2.91 µM
  TGI: 12.3 µM
[22]
  GI50: 4.69 µM
  TGI: 38.6 µM
[23]
  GI50: 1.19 µM
  TGI: 6.99 µM
[24]
  GI50: 2.58 µM
  TGI: 17 µM
[56]
  GI50: 2.33 µM
  TGI: 6.47 µM
[25]
  GI50: 0.376 µM
  TGI: 15 µM
[26]
  GI50: 0.756 µM
  TGI: 15.4 µM
[27]
  GI50: 3.93 µM
  TGI: 23.7 µM
[28]
  GI50: 0.318 µM
  TGI: 3.8 µM
[29]
  GI50: 3.57 µM
  TGI: 23.4 µM
[30]
  GI50: 2.08 µM
  TGI: 20.9 µM
[31]
  GI50: 1.08 µM
  TGI: 5.35 µM
[32]
  GI50: 2.12 µM
  TGI: 6.73 µM
[33]
  GI50: 1.42 µM
  TGI: 15.8 µM
[34]
  GI50: 2.3 µM
  TGI: 12.3 µM
[35]
  GI50: 1.05 µM
  TGI: 14.4 µM
[36]
  GI50: 0.563 µM
  TGI: 8.85 µM
[37]
  GI50: 0.766 µM
  TGI: 7.38 µM
[38]
  GI50: 1.37 µM
  TGI: 11.6 µM
[39]
  GI50: 4.54 µM
  TGI: 21.5 µM
[40]
  GI50: 0.9 µM
  TGI: 16.6 µM
[57]
  GI50: 0.812 µM
  TGI: 4.72 µM
[41]
  GI50: 0.701 µM
  TGI: 3.03 µM
[42]
  GI50: 2.8 µM
  TGI: 14.2 µM
[43]
  GI50: 1.48 µM
  TGI: 9.07 µM
[44]
  GI50: 0.878 µM
  TGI: 18.8 µM
[45]
  GI50: 4.26 µM
  TGI: 26.2 µM
[46]
  GI50: 2.94 µM
  TGI: 16.4 µM
[47]
  GI50: 3.13 µM
  TGI: 15.5 µM
[48]
  GI50: 1.93 µM
  TGI: 14.1 µM
[58]
  GI50: 0.526 µM
  TGI: 3.6 µM
[49]
  GI50: 1.13 µM
  TGI: 11.5 µM
[50]
  GI50: 2.38 µM
  TGI: 20.9 µM
[51]
  GI50: 1.85 µM
  TGI: 11.5 µM
[52]
  GI50: 1.64 µM
  TGI: 13.2 µM
[53]
  GI50: 0.821 µM
  TGI: 14.1 µM
[54]
  GI50: 2.51 µM
  TGI: > 54.5 µM

## Cc1ccc(NC2=N[C@]34CC(=O)CC[C@]3(C)[C@H]3CC[C@]5(C)C(=O)CC[C@H]5[C@@H]3C[C@@H]4S2)c(C)c1
[1]
  GI50: 2.46 µM
  TGI: 6.7 µM
[2]
  GI50: 2.9 µM
  TGI: > 100 µM
[4]
  GI50: 3.02 µM
  TGI: > 100 µM
[5]
  GI50: 1.34 µM
  TGI: 2.86 µM
[6]
  GI50: 2.5 µM
  TGI: 6.54 µM
[7]
  GI50: 2.83 µM
  TGI: > 100 µM
[8]
  GI50: 3.83 µM
  TGI: > 100 µM
[9]
  GI50: 2.91 µM
  TGI: > 100 µM
[10]
  GI50: 2.86 µM
  TGI: > 100 µM
[55]
  GI50: 2.45 µM
  TGI: > 100 µM
[11]
  GI50: 2.17 µM
  TGI: 5.07 µM
[12]
  GI50: 1.68 µM
  TGI: 3.28 µM
[13]
  GI50: 2.32 µM
  TGI: > 100 µM
[14]
  GI50: 9.85 µM
  TGI: > 100 µM
[15]
  GI50: 1.74 µM
  TGI: 3.23 µM
[16]
  GI50: 2.47 µM
  TGI: 6.03 µM
[18]
  GI50: 1.72 µM
  TGI: 3.94 µM
[19]
  GI50: 2.43 µM
  TGI: 6.92 µM
[20]
  GI50: 1.62 µM
  TGI: 3.07 µM
[21]
  GI50: 2.04 µM
  TGI: 5.18 µM
[22]
  GI50: 2.89 µM
  TGI: > 100 µM
[24]
  GI50: 2.33 µM
  TGI: 7.92 µM
[25]
  GI50: 2.31 µM
  TGI: > 100 µM
[27]
  GI50: 2.01 µM
  TGI: 4.85 µM
[28]
  GI50: 2.11 µM
  TGI: 5.14 µM
[29]
  GI50: 3.7 µM
  TGI: > 100 µM
[30]
  GI50: 1.99 µM
  TGI: 5.55 µM
[31]
  GI50: 3.75 µM
  TGI: > 100 µM
[32]
  GI50: 1.62 µM
  TGI: 3.08 µM
[33]
  GI50: 1.49 µM
  TGI: 2.85 µM
[34]
  GI50: 2.7 µM
  TGI: 8.39 µM
[37]
  GI50: 2.19 µM
  TGI: 97.5 µM
[38]
  GI50: 3.5 µM
  TGI: > 100 µM
[39]
  GI50: 2.19 µM
  TGI: 4.74 µM
[41]
  GI50: 2.18 µM
  TGI: 5.03 µM
[42]
  GI50: 1.69 µM
  TGI: 3.21 µM
[43]
  GI50: 1.72 µM
  TGI: 3.86 µM
[44]
  GI50: 2.55 µM
  TGI: 7.04 µM
[45]
  GI50: 1.49 µM
  TGI: 2.94 µM
[47]
  GI50: 2.63 µM
  TGI: 7.26 µM
[48]
  GI50: 2.31 µM
  TGI: 6.08 µM
[58]
  GI50: 2.43 µM
  TGI: 6.25 µM
[49]
  GI50: 1.86 µM
  TGI: 4.53 µM
[50]
  GI50: 2.12 µM
  TGI: 5.09 µM
[51]
  GI50: 1.64 µM
  TGI: 3.13 µM
[53]
  GI50: 1.86 µM
  TGI: 3.73 µM
[54]
  GI50: 2.49 µM
  TGI: > 100 µM
